BindingDB's records for PubMed 36473699 (Cnrs, 2022)

Test: Inhibition of Mycobacterium smegmatis MC2 155 recombinant type II NADH dehydrogenase ndh expressed in Escherichia coli assessed as rate of NADH oxidation in the presence of an electron acceptor menadione

Compound	IC50 [nM]
COc1ccc(CN2CC[C@]34OC[C@H](C(C)C)N3C(=O)CC[C@@H]4C2)cc1	890
CC(C)[C@H]1CO[C@]23CCN(Cc4ccc(Cl)cc4)C[C@H]2CCC(=O)N13	42
CC(C)[C@H]1CO[C@]23CCN(Cc4ccc(C(F)(F)F)nc4)C[C@H]2CCC(=O)N13	88
